Laboratory results as given in publication PMC9648375, “Identification of the first-in-class dual inhibitors of human DNA topoisomerase IIα and indoleamine-2,3-dioxygenase 1 (IDO 1) with strong anticancer properties” (Journal of Enzyme Inhibition and Medicinal Chemistry, 2022).
Values after ≈ are worked out from the molar mass of the structure shown. Read-outs that look alike come from different tables or passages of the source.

Key:
[1] = test system: FaDu (squamous cell carcinoma of the pharynx); assay: MTT assay; format: cell-based; details: Homo sapiens, read-out: IC50, cytotoxicity
Description: (§1) Therefore, the whole set of compounds were tested by using MTT assay in order to check their overall cytotoxic effect. The growth of cells was monitored after 24 and 48 h of incubation with the increased concentrations (1–100 µg/ml) of the thiosemicarbazide derivatives. […] This confirms that the compounds tested combine different mechanisms of anticancer activity, and DNA topoisomerase II inhibition is only one of them.
(§2) Cytotoxicity of the synthesised compounds were examined against a panel of the cancer cell lines, MCF-7 (estrogen-dependent human breast cancer cells), MDA-MB-231 (oestrogen-independent human breast cancer cells), SCC- 25 (squamous cell carcinoma of the tongue), FaDu (squamous cell carcinoma of the pharynx), A- 549 (human lung carcinoma), AGS (human gastric adenocarcinoma), LS-180, HT-29 (colon cancer cell lines), T98G (glioblastoma cells), A375 (melanoma cells). Human embryonic kidney (HEK-293) cells and human normal skin fibroblasts (CRL-2072) were used as reference cell lines. The investigated cell lines were obtained from American Type Culture Collection (ATCC; Manassas, VA, USA). A375, MCF-7, MDA-MB-231, T98G cells were cultured in Dulbecco’s Modified Eagle’s Medium (DMEM) (Sigma Aldrich, St. Louis, MO, USA) supplemented with 10% heat inactivated foetal bovine serum (FBS), penicillin (100 U/mL), and streptomycin (100 μg/mL). SCC-25 cells were cultured in 1:1 mixture of Dulbecco’s modified Eagle’s medium and Ham’s F12 Medium (Sigma Aldrich, St. Louis, MO, USA) supplemented with 400 ng/ml hydrocortisone, 10% FBS, penicillin (100 U/mL), and streptomycin (100 μg/mL). A549 and AGS cells were maintained in F-12K Medium (Sigma Aldrich, St. Louis, MO, USA). LS-180 and FaDu cells were cultured in Eagle’s Minimum Essential Medium. HT-29 cells were maintained in McCoy’s 5 A Medium (Sigma Aldrich, St. Louis, MO, USA) supplemented with 10%FBS, penicillin (100 U/mL), and streptomycin (100 μg/mL). All the cells were maintained at 37 °C in a humidified atmosphere of 5% CO2.
(§3) The synthesised compounds were dissolved in DMSO in order to obtain stock solutions. At the day of the experiment, the suspension of cells (1 × 10^5 cells/mL) in the respective medium was applied to a 96-well plate at 100 μL per well. […] The control cells were cultured only with a medium containing 2% FBS. Cytotoxicity of DMSO was also checked at concentrations present in respective dilutions of stock solution. After 24 h (or 48 h) of incubation, 15 μL of MTT working solution (5 mg/mL in PBS) was added to each well. The plate was incubated for 3 h. Subsequently, 100 μL of 10% SDS solution was added to each well. Cells were incubated overnight at 37 °C to dissolve the precipitated formazan crystals. The concentration of the dissolved formazan was evaluated by measuring the absorbance at λ = 570 nm, using a microplate reader (Epoch, BioTek Instruments, Inc., Winooski, VT, USA). At least two independent experiments were performed in triplicates. The results of the MTT assay were expressed as mean ± SD. […] IC50 values of the investigated derivatives and standards were calculated using the IC50 calculator.[23]

[2] = test system: T98G (glioblastoma cells); assay: MTT assay; format: cell-based; details: Homo sapiens, read-out: IC50, cytotoxicity
Description: as §1, §2, §3

MTT assay = format: cell-based; details: human, HEK-293 cells (normal reference cell line), HEK-293 (normal cells), read-out: IC50, cytotoxicity
Description: as §1, §2, §3

[3] = test system: MDA-MB-231 (estrogen-independent human breast cancer cells); assay: MTT assay; format: cell-based; details: MDA-MB-231, MTT, read-out: IC50, cytotoxicity
Description: as §1, §2, §3

[4] = test system: AGS (human gastric adenocarcinoma); assay: MTT assay; format: cell-based; details: read-out: IC50, cytotoxicity
Description: as §1, §2, §3

[5] = test system: SCC-25 (squamous cell carcinoma of the tongue); assay: MTT assay; format: cell-based; details: Homo sapiens, SCC-25, MTT, read-out: IC50, cytotoxicity
Description: as §1, §2, §3

A375 (melanoma cells) = assay: MTT assay; format: cell-based; details: Homo sapiens, read-out: IC50, cytotoxicity
Description: as §1, §2, §3

[6] = test system: MCF-7 (estrogen-dependent human breast cancer cells); assay: MTT assay; format: cell-based; details: MCF7, MCF-7, MTT, read-out: IC50, cytotoxicity
Description: as §1, §2, §3

[7] = test system: HT-29 (colon cancer cell line); assay: MTT assay; format: cell-based; details: Homo sapiens, HT-29, MTT, read-out: IC50, cytotoxicity
Description: as §1, §2, §3

[8] = test system: LS180 (colon cancer cell line); assay: MTT assay; format: cell-based; details: Homo sapiens, read-out: IC50, cytotoxicity
Description: as §1, §2, §3

[9] = test system: A549 (human lung carcinoma); assay: MTT assay; format: cell-based; details: read-out: IC50, cytotoxicity
Description: as §1, §2, §3

[10] = Solubility in culture media and buffers; format: physicochemical

| Compound | melting point | IC50 ([1]; 24h) | IC50 ([1]; 48 h) | IC50 ([2]; 24h) | IC50 ([2]; 48h) | IC50 at 24 h (MTT assay) | IC50 at 48 h (MTT assay) | IC50 ([3]; 24h) | IC50 ([3]; 48h) | IC50 ([4]; 24h) | IC50 ([4]; 48 h) | IC50 ([5]; 24h) | IC50 ([5]; 48 h) | IC50 (A375 (melanoma cells); A-375, 24h) | IC50 (A375 (melanoma cells); A-375, 48 h) | IC50 ([6]; 24h) | IC50 ([6]; 48h) | IC50 ([7]; 24h) | IC50 ([7]; 48 h) | IC50 ([8]; 24h) | also measured |
| --- | --- | --- | --- | --- | --- | --- | --- | --- | --- | --- | --- | --- | --- | --- | --- | --- | --- | --- | --- | --- | --- |
| O=C(Cc1cccc2ccccc12)NNC(=S)NC(=O)c1ccccc1Cl [Compound 8, 4-(2-Chlorobenzoyl)-1-[(naphth-1-yl)acetyl]thiosemicarbazide] | 174 to 176 °C | > 100 µg/mL | 12.8 µg/mL (≈ 32.2 µM) | 97.2 µg/mL (≈ 244 µM) | 11.8 µg/mL (≈ 29.7 µM) | > 100 µg/mL | 23.4 µg/mL (≈ 58.9 µM) | > 100 µg/mL | 17.2 µg/mL (≈ 43.3 µM) | > 100 µg/mL | > 100 µg/mL | > 100 µg/mL | 29.5 µg/mL (≈ 74.1 µM) | > 100 µg/mL | 9.45 µg/mL (≈ 23.8 µM) | > 100 µg/mL | 12.7 µg/mL (≈ 32 µM) | > 100 µg/mL | 14.8 µg/mL (≈ 37.1 µM) | > 100 µg/mL | IC50 ([8]; 48 h): 41.1 µg/mL (≈ 103 µM); IC50 ([9]; 24h): > 100 µg/mL; IC50 ([9]; 48h): > 100 µg/mL |
| O=C(Cc1cccc2ccccc12)NNC(=S)NC(=O)c1ccccc1 [Compound 9, 4-Benzoyl-1-[(naphth-1-yl)acetyl]thiosemicarbazide] | 164 to 166 °C | 28.2 µg/mL (≈ 77.5 µM) | 19.5 µg/mL (≈ 53.7 µM) | > 100 µg/mL | 17.4 µg/mL (≈ 47.8 µM) | 67 µg/mL (≈ 184 µM) | 23 µg/mL (≈ 63.4 µM) | > 100 µg/mL | > 100 µg/mL | > 100 µg/mL | 19.7 µg/mL (≈ 54.1 µM) | 32.2 µg/mL (≈ 88.6 µM) | 34.5 µg/mL (≈ 94.9 µM) | > 100 µg/mL | 8.14 µg/mL (≈ 22.4 µM) | > 100 µg/mL | 16.4 µg/mL (≈ 45 µM) | > 100 µg/mL | 5.23 µg/mL (≈ 14.4 µM) | > 100 µg/mL | IC50 ([8]; 48 h): 19.8 µg/mL (≈ 54.5 µM); IC50 ([9]; 24h): > 100 µg/mL; IC50 ([9]; 48h): > 100 µg/mL |
| O=C(Cc1cccc2ccccc12)NNC(=S)Nc1c(F)cccc1F [Compound 10, 4-(2,6-Difluorophenyl)-1-[(naphth-1-yl)acetyl]thiosemicarbazide] | 186 to 188 °C | 20.1 µg/mL (≈ 54.2 µM) | 29.7 µg/mL (≈ 80.1 µM) | 47.2 µg/mL (≈ 127 µM) | 30.6 µg/mL (≈ 82.5 µM) | 63.7 µg/mL (≈ 172 µM) | 19.5 µg/mL (≈ 52.5 µM) | 83.4 µg/mL (≈ 225 µM) | 68.1 µg/mL (≈ 183 µM) | 29.5 µg/mL (≈ 79.3 µM) | 21.1 µg/mL (≈ 56.7 µM) | 52.4 µg/mL (≈ 141 µM) | 23.9 µg/mL (≈ 64.2 µM) | 47.9 µg/mL (≈ 129 µM) | 30.1 µg/mL (≈ 81.2 µM) | 64.1 µg/mL (≈ 173 µM) | 20.6 µg/mL (≈ 55.6 µM) | 32.9 µg/mL (≈ 88.7 µM) | 32.2 µg/mL (≈ 86.6 µM) | 72.4 µg/mL (≈ 195 µM) | IC50 ([8]; 48 h): 12.6 µg/mL (≈ 33.8 µM); IC50 ([9]; 24h): 92.6 µg/mL (≈ 249 µM); IC50 ([9]; 48h): 32.8 µg/mL (≈ 88.4 µM) |
| O=C(NNC(=S)Nc1ccc(F)cc1F)c1ccccc1[N+](=O)[O-] [Compound 11, 4-(2,4-Difluorophenyl)-1-(2-nitrobenzoyl)thiosemicarbazide] | 182 to 184 °C |  |  |  |  |  |  |  |  |  |  |  |  |  |  |  |  |  |  |  | solubility in culture media and buffers [10]: low solubility |
| Cc1cccc(C(=O)NC(=S)NNC(=O)c2ccc(O)c([N+](=O)[O-])c2)c1 [Compound 12, 4-(3-Methylbenzoyl)-1-(4-hydroxy-3-nitrobenzoyl)thiosemicarbazide] | 190 to 192 °C |  |  |  |  |  |  |  |  |  |  |  |  |  |  |  |  |  |  |  | solubility in culture media and buffers [10]: low solubility |
